Results as given in patent US9096500B2, “Acyl sulfonamide compounds” (Pfizer Limited, priority 2010, dated 2015).

Target: T1, Nav1.7 (or SCN9A) channel (Homo sapiens, UniProt Q15858)
T1 construct: expressed in transfected cells
Test: Nav1.7 (hSCN9A) electrophysiology assay, PatchXpress platform
Format: cell-based
Conditions: estimated IC50 from single point electrophysiology data, HEK cells stably expressing hSCN9A, held at V1/2 of inactivation, read-out: Nav1.7 EIC50
Procedure, shortened: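 HEK cells stably expressing hSCN9A were recorded by whole-cell voltage clamp, including on PatchXpress, at 22–24°C with extracellular solution at pH 7.4. A 20 msec step to 0 mV followed an 8 s conditioning prepulse to the empirically determined inactivation V1/2. Inhibition was taken from current amplitude before vs after compound.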

T1 sequence (Q15858 whole entry): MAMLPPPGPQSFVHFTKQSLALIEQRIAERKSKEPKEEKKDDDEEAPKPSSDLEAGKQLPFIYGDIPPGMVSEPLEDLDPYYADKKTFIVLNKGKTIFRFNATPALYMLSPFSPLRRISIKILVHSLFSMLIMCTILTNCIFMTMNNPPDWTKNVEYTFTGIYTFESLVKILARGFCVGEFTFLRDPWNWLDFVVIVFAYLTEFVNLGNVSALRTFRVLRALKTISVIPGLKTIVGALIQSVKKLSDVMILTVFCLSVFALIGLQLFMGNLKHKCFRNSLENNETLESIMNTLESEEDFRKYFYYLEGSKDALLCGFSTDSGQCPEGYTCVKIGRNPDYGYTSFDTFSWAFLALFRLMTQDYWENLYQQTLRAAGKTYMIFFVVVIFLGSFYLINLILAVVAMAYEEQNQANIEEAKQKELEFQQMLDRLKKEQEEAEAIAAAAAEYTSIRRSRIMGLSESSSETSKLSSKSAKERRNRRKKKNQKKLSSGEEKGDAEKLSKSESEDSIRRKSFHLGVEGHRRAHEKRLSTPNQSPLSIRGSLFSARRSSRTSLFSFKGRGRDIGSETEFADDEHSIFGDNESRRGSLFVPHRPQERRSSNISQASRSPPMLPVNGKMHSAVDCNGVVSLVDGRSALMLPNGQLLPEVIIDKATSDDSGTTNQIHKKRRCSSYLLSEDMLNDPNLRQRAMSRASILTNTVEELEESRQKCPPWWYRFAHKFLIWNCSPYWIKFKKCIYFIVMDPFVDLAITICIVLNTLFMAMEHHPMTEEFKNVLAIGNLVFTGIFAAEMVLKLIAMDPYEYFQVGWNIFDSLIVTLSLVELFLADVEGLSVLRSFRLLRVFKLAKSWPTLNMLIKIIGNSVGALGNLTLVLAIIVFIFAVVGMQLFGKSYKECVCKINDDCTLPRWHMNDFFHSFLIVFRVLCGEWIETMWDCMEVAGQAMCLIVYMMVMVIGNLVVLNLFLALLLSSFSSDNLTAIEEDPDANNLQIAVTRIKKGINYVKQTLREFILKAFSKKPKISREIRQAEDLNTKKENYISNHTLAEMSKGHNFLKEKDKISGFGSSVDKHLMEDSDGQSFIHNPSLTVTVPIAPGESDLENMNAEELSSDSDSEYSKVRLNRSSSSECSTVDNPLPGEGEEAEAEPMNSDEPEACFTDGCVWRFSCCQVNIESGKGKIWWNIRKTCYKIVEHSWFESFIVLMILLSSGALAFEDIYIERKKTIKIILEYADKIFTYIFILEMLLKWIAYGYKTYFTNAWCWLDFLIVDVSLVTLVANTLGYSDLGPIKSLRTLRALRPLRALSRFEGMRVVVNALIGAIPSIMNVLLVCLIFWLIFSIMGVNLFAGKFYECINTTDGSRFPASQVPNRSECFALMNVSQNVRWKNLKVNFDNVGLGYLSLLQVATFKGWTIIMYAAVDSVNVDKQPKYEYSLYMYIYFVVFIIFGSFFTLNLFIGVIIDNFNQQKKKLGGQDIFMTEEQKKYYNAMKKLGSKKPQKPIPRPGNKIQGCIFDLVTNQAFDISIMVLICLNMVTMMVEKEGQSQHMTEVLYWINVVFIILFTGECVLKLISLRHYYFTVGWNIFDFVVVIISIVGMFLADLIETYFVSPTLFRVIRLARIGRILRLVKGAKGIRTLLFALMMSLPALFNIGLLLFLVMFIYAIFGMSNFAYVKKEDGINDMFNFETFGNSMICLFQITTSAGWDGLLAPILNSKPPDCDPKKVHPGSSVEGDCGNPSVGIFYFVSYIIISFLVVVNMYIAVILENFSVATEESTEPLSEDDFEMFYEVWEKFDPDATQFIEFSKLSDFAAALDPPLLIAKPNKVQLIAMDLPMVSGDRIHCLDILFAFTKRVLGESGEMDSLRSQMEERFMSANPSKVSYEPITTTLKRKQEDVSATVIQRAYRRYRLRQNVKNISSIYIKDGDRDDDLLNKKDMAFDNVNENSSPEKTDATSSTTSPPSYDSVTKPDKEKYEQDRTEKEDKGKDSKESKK

Row | SMILES | IC50 [nM]
1 | CS(=O)(=O)NC(=O)c1ccc(OCc2c(F)cccc2Cl)cc1 [Example 182, 4-[(2-chloro-6-fluorobenzyl)oxy]-N-(methylsulfonyl)benzamide] | > 1000
2 | COc1cc(COc2ccc(C(=O)NS(C)(=O)=O)cc2)ccc1F [Example 185, 4-[(4-fluoro-3-methoxybenzyl)oxy]-N-(methylsulfonyl)benzamide] | > 1000
3 | CS(=O)(=O)NC(=O)c1ccc(OCc2ccccc2Cl)cc1 [Example 186, 4-[(2-chlorobenzyl)oxy]-N-(methylsulfonyl)benzamide] | 7300
4 | CS(=O)(=O)NC(=O)c1ccc(OCC2CCCC2)cc1 [Example 191, 4-(cyclopentylmethoxy)-N-(methylsulfonyl)benzamide] | 7600
5 | CS(=O)(=O)NC(=O)c1cc(F)c(OCc2cccc(F)c2)cc1F [Example 195, 2,5-difluoro-4-[(3-fluorobenzyl)oxy]-N-(methylsulfonyl)benzamide] | > 3000
6 | Cc1ccc(COc2cc(F)c(C(=O)NS(C)(=O)=O)cc2F)cc1 [Example 196, 2,5-difluoro-4-[(4-methylbenzyl)oxy]-N-(methylsulfonyl)benzamide] | > 1000
7 | CS(=O)(=O)NC(=O)c1cc(F)c(OCC2CCC2)cc1F [Example 197, 4-(cyclobutylmethoxy)-2,5-difluoro-N-(methylsulfonyl)benzamide] | > 1000
8 | COc1ccc(COc2cc(F)c(C(=O)NS(C)(=O)=O)cc2F)cc1 [Example 198, 2,5-difluoro-4-[(4-methoxybenzyl)oxy]-N-(methylsulfonyl)benzamide] | > 1000
9 | COc1cc(COc2cc(F)c(C(=O)NS(C)(=O)=O)cc2F)cc(OC)c1 [Example 201, 4-[(3,5-dimethoxybenzyl)oxy]-2,5-difluoro-N-(methylsulfonyl)benzamide] | > 1000
10 | COc1ccc(OC)c(COc2cc(F)c(C(=O)NS(C)(=O)=O)cc2F)c1 [Example 202, 4-[(2,5-dimethoxybenzyl)oxy]-2,5-difluoro-N-(methylsulfonyl)benzamide] | 11000
11 | COc1ccc(F)c(COc2cc(F)c(C(=O)NS(C)(=O)=O)cc2F)c1 [Example 205, 2,5-difluoro-4-[(2-fluoro-5-methoxybenzyl)oxy]-N-(methylsulfonyl)benzamide] | > 3000
12 | COc1cccc(COc2cc(F)c(C(=O)NS(C)(=O)=O)cc2F)c1OC [Example 206, 4-[(2,3-dimethoxybenzyl)oxy]-2,5-difluoro-N-(methylsulfonyl)benzamide] | > 1000
13 | CS(=O)(=O)NC(=O)c1cc(F)c(OCc2cccc(Cl)c2)cc1F [Example 207, 4-[(3-chlorobenzyl)oxy]-2,5-difluoro-N-(methylsulfonyl)benzamide] | > 300
14 | COc1ccc(C)cc1COc1ccc(C(=O)NS(C)(=O)=O)cc1 [Example 210, 4-[(2-methoxy-5-methylbenzyl)oxy]-N-(methylsulfonyl)benzamide] | > 1000
15 | CS(=O)(=O)NC(=O)c1cc(F)c(OCc2ccc(OC(F)(F)F)cc2)cc1F [Example 212, 2,5-difluoro-N-(methylsulfonyl)-4-{[4-(trifluoromethoxy)benzyl]oxy}benzamide] | > 300
16 | CS(=O)(=O)NC(=O)c1ccc(OCc2ccc(Cl)cc2F)cc1 [Example 213, 4-[(4-chloro-2-fluorobenzyl)oxy]-N-(methylsulfonyl)benzamide] | > 300
17 | COc1cc(F)ccc1COc1cc(F)c(C(=O)NS(C)(=O)=O)cc1F [Example 215, 2,5-difluoro-4-[(4-fluoro-2-methoxybenzyl)oxy]-N-(methylsulfonyl)benzamide] | > 1000

Now from value to compound:

Row | IC50 [nM] | SMILES
18 | 570 | CS(=O)(=O)NC(=O)c1ccc(OCc2ccc(OC(F)(F)F)cc2)cc1 [Example 181, N-(methylsulfonyl)-4-{[4-(trifluoromethoxy)benzyl]oxy}benzamide]
19 | 4300 | CS(=O)(=O)NC(=O)c1ccc(OCc2ccccc2C(F)(F)F)cc1 [Example 183, N-(methylsulfonyl)-4-{[2-(trifluoromethyl)benzyl]oxy}benzamide]
20 | 2600 | CS(=O)(=O)NC(=O)c1ccc(OCc2c(Cl)cccc2Cl)cc1 [Example 184, 4-[(2,6-dichlorobenzyl)oxy]-N-(methylsulfonyl)benzamide]
21 | 4200 | CS(=O)(=O)NC(=O)c1ccc(OCc2cc(F)cc(F)c2)cc1 [Example 187, 4-[(3,5-difluorobenzyl)oxy]-N-(methylsulfonyl)benzamide]
22 | 2500 | COc1ccc(F)c(COc2ccc(C(=O)NS(C)(=O)=O)cc2)c1 [Example 188, 4-[(2-fluoro-5-methoxybenzyl)oxy]-N-(methylsulfonyl)benzamide]
23 | 1500 | CS(=O)(=O)NC(=O)c1ccc(OCc2cccc(Cl)c2Cl)cc1 [Example 189, 4-[(2,3-dichlorobenzyl)oxy]-N-(methylsulfonyl)benzamide]
24 | 620 | CS(=O)(=O)NC(=O)c1ccc(OCc2ccc(Cl)cc2Cl)cc1 [Example 190, 4-[(2,4-dichlorobenzyl)oxy]-N-(methylsulfonyl)benzamide]
25 | 3100 | CS(=O)(=O)NC(=O)c1cc(F)c(OCc2cccc(C(F)(F)F)c2)cc1F [Example 192, 2,5-difluoro-N-(methylsulfonyl)-4-{[3-(trifluoromethyl)benzyl]oxy}benzamide]
26 | 4700 | CS(=O)(=O)NC(=O)c1cc(F)c(OCc2ccc(C(F)(F)F)cc2)cc1F [Example 193, 2,5-difluoro-N-(methylsulfonyl)-4-{[4-(trifluoromethyl)benzyl]oxy}benzamide]
27 | 1700 | CS(=O)(=O)NC(=O)c1cc(F)c(OCc2cccc3ccccc23)cc1F [Example 194, 2,5-difluoro-N-(methylsulfonyl)-4-(1-naphthylmethoxy)benzamide]
28 | 2400 | CS(=O)(=O)NC(=O)c1cc(F)c(OCc2ccccc2F)cc1F [Example 199, 2,5-difluoro-4-[(2-fluorobenzyl)oxy]-N-(methylsulfonyl)benzamide]
29 | 5000 | COc1cc(C)ccc1COc1cc(F)c(C(=O)NS(C)(=O)=O)cc1F [Example 200, 2,5-difluoro-4-[(2-methoxy-4-methylbenzyl)oxy]-N-(methylsulfonyl)benzamide]
30 | 1700 | Cc1ccc(COc2cc(F)c(C(=O)NS(C)(=O)=O)cc2F)cc1C [Example 203, 4-[(3,4-dimethylbenzyl)oxy]-2,5-difluoro-N-(methylsulfonyl)benzamide]
31 | 3600 | CS(=O)(=O)NC(=O)c1ccc(OCc2ccc(F)cc2F)cc1 [Example 204, 4-[(2,4-difluorobenzyl)oxy]-N-(methylsulfonyl)benzamide]
32 | 2600 | CS(=O)(=O)NC(=O)c1ccc(OCc2cc(F)ccc2F)cc1 [Example 208, 4-[(2,5-difluorobenzyl)oxy]-N-(methylsulfonyl)benzamide]
33 | 2600 | CS(=O)(=O)NC(=O)c1cc(F)c(OCc2ccc(OC(F)F)cc2)cc1F [Example 211, 4-{[4-(difluoromethoxy)benzyl]oxy}-2,5-difluoro-N-(methylsulfonyl)benzamide]
34 | 3800 | CS(=O)(=O)NC(=O)c1cc(F)c(OCc2cccc(Cl)c2Cl)cc1F [Example 214, 4-[(2,3-dichlorobenzyl)oxy]-2,5-difluoro-N-(methylsulfonyl)benzamide]
35 | 3800 | CS(=O)(=O)NC(=O)c1cc(F)c(OCc2ccc(F)cc2)cc1F [Example 216, 2,5-difluoro-4-[(4-fluorobenzyl)oxy]-N-(methylsulfonyl)benzamide]
